From patent EP1764363A2, “Substituted acetophenonederivatives” (Riemser Arzneimittel AG, priority 2005, dated 2007)
Converted amounts (≈) assume the structure as drawn. “And” between values parts separate entries of the source, which are not always exact repeats. Equal entries are not always repeated. Marks after values point to notes of the source that are not given here.

What was measured:
[1] = test system: Staphylococcus aureus (Stamm ATCC 6538); experiment: Mouse ear test (in vivo), antiseptic effect; design: key to Keimwachstum (grade): +++: totale Verhinderung des Keimwachstums; ++: Keimwachstum deutlich reduziert aber nicht völlig unterdrückt; settings: mouse ears infected with S. aureus ATCC 6538; germ count vs infected untreated animal after 18 and 24 h
[2] = Radical scavenger screening with DPPH radicals (DPPH test); settings: Konzentrationen 500 und 1000µg/ml
Text: […] die 6 Verbindungen HMF2, HMF-3, CH-1, L5, Q20 und […]. Die […] durch den DPPH-Test ermittelt, wobei sich die UV/VIS-Absorption des freien stabilen […] (Diphenyl-β-picrylhydrazin) in Abhängigkeit vom Zustand von […]. Die Auswertung erfolgt qualitativ (dünnschichtchromatographisch) und quantitativ (photometrisch) mit Ascorbinsäure […] Molyneux P. (2004) The use of the stabel free radical diphenylpicrylhydrazyl (DPPH) for estimating antioxidant activity. Songklanakarin J Sci Technol. 26(2): 211-219).

Bacillus subitilis = experiment: Minimal inhibitory concentration (MHK), microtitre plate, TTC staining; assay type: cell-based; settings: 48h, 36°C
S. epidermides = experiment: as above; assay type: cell-based; settings: 48h, 36°C
S. falcium = experiment: as above; assay type: cell-based; settings: 48h, 36°C
S. aureus = experiment: as above; assay type: cell-based; settings: 48h, 36°C
Rhodococcus equi = experiment: as above; assay type: cell-based; settings: 48h, 36°C
E. faecium = experiment: as above; assay type: cell-based; settings: 48h, 36°C
Salmonella sp = experiment: as above; assay type: cell-based; settings: 48h, 36°C
Text: Das Inokulum für die Tests wurde durch Verdünnung der Mikroorganismen in wässriger 0,85% NaCI-Lösung hergestellt, die Verdünnung auf die Stufe 0,5 nach McFarland eingestellt und die Konzentration spektrometrisch bei einer Wellenlänge von 580nm überprüft. Die Zellsuspensionen wurden zur Verwendung in den Tests auf 10^4 UFC/ml verdünnt. Die MHK-Tests erfolgten (Vorschrift nach J. N. P. Eloff, Planta Medica, Vol. 64, 1998, p 711-713) in Mikrotiterplatten mit 96 Vertiefungen. Serienverdünnungen der Konzentrationen lagen im Bereich 1,00 - 0,0015 mg/mL. Als Kontrollsubstanzen dienten Chloramphenicol bzw. Nistatin (Merck) in einer Konzentration von 0,062 - 0,005 mg/ml bzw. 0,0125 - 0,001 mg/ml. Das Inokulum (100 µl) wurde in alle Vertiefungen gegeben und die Platten für 48h bei 36°C inkubiert. Die antimikrobielle Aktivität wurde durch Zugabe von 20 µl einer 0,5% igen wässrigen Lösung von TTC (Tetrazoliumchlorid, Merck) pro Vertiefung detektiert. Die minimale Hemmkonzentration (MHK) wird als die niedrigste Konzentration der Verbindung definiert die das sichtbare Wachstum hemmt (durch TTC-Färbung indiziert).

Escherichia coli = experiment: as above; assay type: cell-based; settings: 48h, 36°C
Candida albicans = experiment: as above; assay type: cell-based; settings: 48h, 36°C
Micrococcus luteus = experiment: as above; assay type: cell-based; settings: 48h, 36°C
WI38 = experiment: Chemosensitivity test (modified MTT test EZ4U); settings: Homo sapiens, WI-38, 96 h, read-out: IC50-Werte
Protocol: (§1) Die Verbindungen wurden in Dimethylsulfoxid (DMSO) als konzentrierte Stammlösungen (100-400fach) gelöst und für Proliferationstests in Zellkulturmedium verdünnt.
(§2) Die Zellen wurden auf Verunreinigung durch Mycoplasmen untersucht. Das Medium wurde mit 10% hitzeinaktiviertem foetalem Kälberserum (Seromed) and 4 mM Glutamin ergänzt. Die Zellen wurden durch Trypsinierung subkultiviert (0.03% Trypsin enthaltend 0.02% EDTA, dreimal pro Woche). Die Trypsinierung wurde durch Verwendung vom komplettem Zellkulturmedium gestoppt. Die Zellzahl wurde unter Verwendung eines TOA Sysmex Microzellzählers (TOA, Tokyo, Japan) bestimmt.
(§3) 10^4 Zellen/well wurden in Mikrotiterplatten mit 96 Vertiefungen (100 µl Medium) verteilt und die zu testenden Verbindungen wurden in einem weiteren Volumen von 100 µl hinzugegeben. Alle Verbindungen wurden entweder in 3 fixen Konzentrationen eingesetzt (für Tabellen 1-3) oder in 10 Stufen verdünnt unter Verwendung von Zweifachverdünnungsschritten zur Bestimmung der IC50-Werte (dreifache Ansätze, in den meisten Fällen vierfache Ansätze). Die Platten wurden, mit der Ausnahme der Tests zur Untersuchung des Zusammenhangs von Applikationsdauer und Zellreaktion, 4 Tage lang unter Zellkulturbedingungen inkubiert und die Zellviabilität wurde unter Verwendung eines modifizierten MTT Tests bestimmt (Formazan-Farbstoffbildung aus Tetrazoliumsalzen wie MTT, XTT, WST-1 und anderen durch das mitochondriale Reduktionsystem Succinattetrazolium Reductase EC 1.3.99.1.; EZ4U nichtradioaktiver Zellproliferations- und Cytotoxizitätstest, Biomedica, Wien, Österreich; Testmanual unter: www.bmgrp.com). Hierbei wurde die mitochondriale Aktivität und dadurch die Zellviabilität/Zellzahl bestimmt. Kurz gesagt wurde das gelieferte Substrat in einer Aktivatorlösung gelöst und 20 µl der Mischung wurden für 2 Stunden pro Vertiefung hinzugegeben (Gesamtvolumen 200 µl). Die optische Dichte wurde bei 450 nm unter Verwendung einer leeren Vertiefung als Referenz in einem Mikroplattenlesegerät (Eurogenetics, Brüssel, Belgien) bestimmt. Für jede Zell-Line wurden Vertiefungen verwendet um das MTT-Signal der Mediumkontrollen ohne Testsubstanzen zu bestimmen. Die Proliferation in den Test-Vertiefungen wurde in Bezug auf diese Kontrollwerte (100%) errechnet. Die Testergebnisse wurden zwischen 0,3 und 1,5 optischer Dichte für langsam bzw. schnellproliferierende Zellen erfasst. Diese Dosis-Wirkungs-Beziehungen wurden verwendet um die IC50 (Konzentration bei der das Wachstum um 50% gehemmt wird) unter Verwendung von PRISM Scientific Software (GraphPad Inc., San Diego, CA) zu berechnen.

T47D = experiment: Chemosensitivity test (modified MTT test EZ4U); settings: Homo sapiens, T47D, 96 h, read-out: IC50-Werte
Protocol: as §1, §2, §3

BxPC3 = experiment: Chemosensitivity test (modified MTT test EZ4U); settings: Homo sapiens, BXPC-3, 96 h, read-out: IC50-Werte
Text: as §1
(§4) Mit Ausnahme von SIM, KAL Ewingsarkom (in Wien etabliert) und LAN Neuroblastom (University of Los Angeles) wurden die Zell-Linien von der American Type Culture Collection (ATCC, Rockville, MD) bezogen und zum Erhalt von konfluenten Monolayerkulturen in RPMI-1640 Bikarbonatmedium (Seromed, Berlin, Deutschland) in einem Zellkulturschrank (5% CO2, 37°C) kultiviert. Mit der Ausnahme der murinen NlH3T3 Fibroblasten sind alle verwendeten Zell-Linien humanen Ursprungs. Die Zellen wurden auf Verunreinigung durch Mycoplasmen untersucht. Das Medium wurde mit 10% hitzeinaktiviertem foetalem Kälberserum (Seromed) and 4 mM Glutamin ergänzt. Die Zellen wurden durch Trypsinierung subkultiviert (0.03% Trypsin enthaltend 0.02% EDTA, dreimal pro Woche). Die Trypsinierung wurde durch Verwendung vom komplettem Zellkulturmedium gestoppt. Die Zellzahl wurde unter Verwendung eines TOA Sysmex Microzellzählers (TOA, Tokyo, Japan) bestimmt.
(§5) 10^4 Zellen/well wurden in Mikrotiterplatten mit 96 Vertiefungen (100 µl Medium) verteilt und die zu testenden Verbindungen wurden in einem weiteren Volumen von 100 µl hinzugegeben. […]

DU 145 = experiment: Chemosensitivity test (modified MTT test EZ4U); settings: Homo sapiens, DU-145, 96 h, read-out: IC50-Werte
Text: as §1, §4, §5

MDA-MB435 = experiment: Chemosensitivity test (modified MTT test EZ4U); settings: Homo sapiens, MDA-MB-435, 96 h, read-out: IC50-Werte
Text: as §1, §4, §5

BT20 = experiment: Chemosensitivity test (modified MTT test EZ4U); settings: Homo sapiens, BT-20, 96 h, read-out: IC50-Werte
Text: as §1, §4, §5

Colo205 = experiment: Chemosensitivity test (modified MTT test EZ4U); settings: Homo sapiens, COLO 205, 96 h, read-out: IC50-Werte
Protocol: as §1, §2, §3

MIAPaCa2 = experiment: Chemosensitivity test (modified MTT test EZ4U); settings: Homo sapiens, MIA PaCa-2, 96 h, read-out: IC50-Werte
Protocol: as §1, §2, §3

SW620 = experiment: Chemosensitivity test (modified MTT test EZ4U); settings: Homo sapiens, SW-620, 96 h, read-out: IC50-Werte
Protocol: as §1, §2, §3

HT29 = experiment: Chemosensitivity test (modified MTT test EZ4U); settings: Homo sapiens, HT-29, 96 h, read-out: IC50-Werte
Text: as §1, §4, §5

CaCo-2 = experiment: Chemosensitivity test (modified MTT test EZ4U); settings: Homo sapiens, Caco-2, 96 h, read-out: IC50-Werte
Protocol: as §1, §2, §3

CRO2B = experiment: Chemosensitivity test (modified MTT test EZ4U); settings: Homo sapiens, 96 h, read-out: IC50-Werte
Protocol: as §1, §2, §3

Structure (SMILES) | Keimwachstum (grade) [1] | MHK-Werte (Bacillus subitilis) | MHK-Werte (S. epidermides) | MHK-Werte (S. falcium) | MHK-Werte (S. aureus) | MHK-Werte (Rhodococcus equi) | MHK-Werte (E. faecium) | MHK-Werte (Escherichia coli) | MHK-Werte (Candida albicans) | MHK-Werte (Micrococcus luteus) | also measured
CC(C)=CCOc1ccccc1C(C)=C(C#N)C#N [L5, 2-{1-[2-(3-Methylbut-2-enyloxy}phenyl]ethyliden}-malononitril] | +++ | – | – | – | – | – | – | – | – | – | Radikalfänger-Effekt [2]: 60%
CC(C)=CCOc1ccc(C(C)=C(C#N)C#N)cc1 [LPK1, 2-{1-[4-(3-Methylbut-2-enyloxy)phenyl]ethyiliden}-malononitril] | – | > 1,5 mg/ml | 0,5-1,0 mg/ml | > 1,5 mg/ml | > 1,5 mg/ml | > 1,5 mg/ml | > 1,5 mg/ml | > 1,5 mg/ml | > 1,5 mg/ml | > 1,5 mg/ml | MHK-Werte (Salmonella sp): > 1,5 mg/ml
C[C@@H]1[C@H](O)[C@@H](C)/C=C/C=C/CC/C=C/C=C/C=C/C=C/C(O[C@H]2O[C@H](C)[C@@H](O)[C@H](N)[C@@H]2O)CC2O[C@](O)(CC(O)C(O)CCC(O)CC(O)CC(O)CC(=O)O[C@H]1C)CC(O)C2C(=O)O (stereo partly drawn) [Nistatin, reference compound] | – | – | – | – | – | – | – | – | 0,05** mg/ml and 0,12** mg/ml | – | –
CC(=C(C#N)C#N)c1ccc(O)cc1 [OK, 2-[1-(4-Hydroxyphenyl)ethyliden]malonitril] | – | 0,12-0,25 mg/ml | 0,03-0,06 mg/ml | 0,5-1,0 mg/ml | 0,25-0,5 mg/ml | 0,5-1,0 mg/ml | 0,12-0,25 mg/ml | 0,5-1,0 mg/ml | 0,5-1,0 mg/ml | 0,12-0,25 mg/ml | –
COc1cc(C2CC(=O)c3ccccc3O2)ccc1OCC=C(C)C (stereo not drawn) [Q25, 2-[3-Methoxy-4-(3-methylbut-2-enyloxy)phenyl]chroman-4-on] | ++ | – | – | – | – | – | – | – | – | – | Keimwachstum reduziert auf [1]: 30%; IC50 (WI38): 8.2 µg/mL (≈ 24.2 µM); IC50 (T47D): 10 µg/mL (≈ 29.6 µM); IC50 (BxPC3): 80 µg/mL (≈ 236 µM); IC50 (DU 145): 15 µg/mL (≈ 44.3 µM); IC50 (MDA-MB435): 34 µg/mL (≈ 100 µM); IC50 (BT20): 45 µg/mL (≈ 133 µM); IC50 (Colo205): 75 µg/mL (≈ 222 µM); IC50 (MIAPaCa2): 57 µg/mL (≈ 168 µM); IC50 (SW620): 84 µg/mL (≈ 248 µM); IC50 (HT29): 18 µg/mL (≈ 53.2 µM); IC50 (CaCo-2): 18 µg/mL (≈ 53.2 µM); IC50 (CRO2B): 6 µg/mL (≈ 17.7 µM)
